Measured values from patent US8476284B2, “Inhibitors of Bruton's tyrosine kinase” (Pharmacyclics, Inc., priority 2006, dated 2013).

Assays:
Btk = Btk (Homo sapiens (Human), UniProt Q06187); experiment: Btk acellular kinase assay (TR-FRET)
DHL-6 cells = experiment: DHL-6 cell growth (Alamar Blue assay); format: cell-based; conditions: 3E4 cells/well, complete media

Sequence of Btk (Q06187 whole entry): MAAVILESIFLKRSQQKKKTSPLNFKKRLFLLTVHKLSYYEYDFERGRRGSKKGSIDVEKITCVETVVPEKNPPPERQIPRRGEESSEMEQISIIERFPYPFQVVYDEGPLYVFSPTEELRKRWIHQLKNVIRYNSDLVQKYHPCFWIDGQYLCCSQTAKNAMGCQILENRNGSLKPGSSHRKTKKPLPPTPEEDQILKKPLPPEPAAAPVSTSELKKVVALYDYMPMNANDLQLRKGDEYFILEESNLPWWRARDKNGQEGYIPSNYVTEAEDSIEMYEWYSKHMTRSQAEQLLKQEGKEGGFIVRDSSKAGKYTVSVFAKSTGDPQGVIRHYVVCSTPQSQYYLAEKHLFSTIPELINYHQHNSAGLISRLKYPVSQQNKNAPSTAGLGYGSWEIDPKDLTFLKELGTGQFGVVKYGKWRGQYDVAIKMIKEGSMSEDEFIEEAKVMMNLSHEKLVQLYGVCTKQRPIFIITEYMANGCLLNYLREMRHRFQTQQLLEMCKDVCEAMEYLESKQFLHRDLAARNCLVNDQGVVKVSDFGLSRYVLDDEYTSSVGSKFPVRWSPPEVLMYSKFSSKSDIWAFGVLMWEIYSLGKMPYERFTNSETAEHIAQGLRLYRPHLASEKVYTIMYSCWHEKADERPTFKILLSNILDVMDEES

Row | fold less potent than 4 (Btk) [fold] | SMILES | growth of DHL-6 cells (DHL-6 cells)
1 | 28 | C/C=C/C(=O)N1CCCC(n2nc(-c3ccc(Oc4ccccc4)cc3)c3c(N)ncnc32)C1 (centres unmarked) [Compound 5, (E)-1-(3-(4-amino-3-(4-phenoxyphenyl)-1H-pyrazolo[3,4-d]pyrimidin-1-yl)piperidin-1-yl)but-2-en-1-one] | 
2 |  | CN(C)C/C=C/C(=O)N1CCCC(n2nc(-c3ccc(Oc4ccccc4)cc3)c3c(N)ncnc32)C1 (centres unmarked) [Compound 15, (E)-1-(3-(4-amino-3-(4-phenoxyphenyl)-1H-pyrazolo[3,4-d]pyrimidin-1-yl)piperidin-1-yl)-4-(dimethylamino)but-2-en-1-one] | inhibit growth
